Results published in PubChem BioAssay (NCI).
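Protocol summary: plate cells (96-well), add compound at 5 concentrations, incubate 48 h, interpolate endpoints linearly. Here, GI50 denotes the concentration required for 50% inhibition of growth. TGI marks complete inhibition of growth.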

What was measured:
Assay in all cases: NCI anticancer screen, dose series, 48 h
[1] = system: M14 melanoma
[2] = system: RXF 393 renal
[3] = system: NCI-H460 lung
[4] = system: SK-MEL-2 melanoma
[5] = system: MCF7 breast
[6] = system: NCI-H226 lung
[7] = system: A498 renal
[8] = system: HL-60(TB) leukemia
[9] = system: HOP-92 NSCLC
[10] = system: MDA-N

SMILES	TGI [1]	TGI [2]	TGI [3]	TGI [4]	TGI [5]	TGI [6]	TGI [7]	TGI [8]	TGI [9]	TGI [10]	GI50 [1]	GI50 [9]	GI50 [7]	GI50 [2]	GI50 [3]	GI50 [4]	GI50 [5]	GI50 [6]	GI50 [8]
Nc1nc2ncc(CNc3ccc(C(=O)NC(CCC(=O)O)C(=O)O)cc3)nc2c(=O)[nH]1 (centres undefined)	> 100 µM	> 100 µM	> 100 µM	> 100 µM	> 100 µM	> 100 µM	–	–	–	–	–	–	–	–	–	–	–	–	–
CC(C)N=C(N)NC#N	> 100 µM	–	> 100 µM	> 100 µM	–	> 100 µM	> 100 µM	> 100 µM	–	–	–	–	–	–	–	–	–	–	–
O=[N+]([O-])C(=C(N1CCOCC1)N1CCOCC1)/C(Cl)=C(\Cl)Br	28.3 µM	–	> 100 µM	44.8 µM	–	60.5 µM	> 100 µM	16.9 µM	31 µM	70.6 µM	–	–	–	–	–	–	–	–	–
[N-]=[N+]=NC(c1cn(C2CC(O)C(CO)O2)c(=O)[nH]c1=O)C(Cl)I (centres undefined)	> 100 µM	> 100 µM	> 100 µM	> 100 µM	> 100 µM	> 100 µM	> 100 µM	–	–	> 100 µM	–	–	–	–	–	–	–	–	–
N#Cc1c(N2CCC(O)C2)c2ccccc2n2c1nc1ccccc12 (centres undefined)	> 100 µM	–	> 100 µM	> 100 µM	> 100 µM	–	95.5 µM	> 100 µM	95.7 µM	> 100 µM	–	–	–	–	–	–	–	–	–
CCOC(=O)C1=CCOc2cc(N(C)C)ccc21	> 100 µM	> 100 µM	> 100 µM	> 100 µM	> 100 µM	> 100 µM	> 100 µM	> 100 µM	–	> 100 µM	–	–	–	–	–	–	–	–	–
N#CC(Cc1ccccc1)N(CCC1=CCCCC1)Cc1ccccc1 (centres undefined)	> 100 µM	> 100 µM	> 100 µM	> 100 µM	> 100 µM	–	> 100 µM	–	> 100 µM	> 100 µM	–	–	–	–	–	–	–	–	–
CN1C(=O)C2(C=CC(O)CC2)c2ccccc21 (centres undefined)	> 100 µM	–	> 100 µM	> 100 µM	> 100 µM	> 100 µM	> 100 µM	> 100 µM	> 100 µM	> 100 µM	–	–	–	–	–	–	–	–	–
COc1ccc(CCCNC(=O)c2cc(OC)c(OC)cc2CCO)cc1OC	> 100 µM	> 100 µM	> 100 µM	> 100 µM	> 100 µM	> 100 µM	> 100 µM	> 100 µM	> 100 µM	–	–	–	–	–	–	–	–	–	–
COC(=O)c1ccc(N=NN(C)COc2ccc(Br)cc2)cc1	–	> 100 µM	> 100 µM	> 100 µM	> 100 µM	> 100 µM	> 100 µM	59.7 µM	> 100 µM	–	–	–	–	–	–	–	–	–	–
O=C(Nc1ccc(-n2ccc3c(NC(=O)c4ccccc4)ncnc32)cc1)Nc1ccc(Cl)c(Cl)c1	8.11 µM	13.3 µM	5.85 µM	12.9 µM	8.25 µM	29.2 µM	14.7 µM	30.6 µM	6.94 µM	–	2420 nM	1120 nM	7.05 µM	6.48 µM	1710 nM	5.2 µM	1900 nM	11.7 µM	8.18 µM
CSc1nc(NC2OC(COC(C)=O)C(OC(C)=O)C(OC(C)=O)C2OC(C)=O)c2c(n1)OCC2=O (centres undefined)	> 100 µM	–	> 100 µM	> 100 µM	–	> 100 µM	> 100 µM	> 100 µM	> 100 µM	–	–	–	–	–	–	–	–	–	–
C/C(CC(O)(/C=N/O)c1ccccc1)=N/O (centres undefined)	> 100 µM	–	> 100 µM	> 100 µM	> 100 µM	> 100 µM	–	–	–	> 100 µM	–	–	–	–	–	–	–	–	–
COc1ccccc1-c1cc(=O)c2cc3c(cc2[nH]1)OCO3	–	56.2 µM	> 100 µM	> 100 µM	–	88.8 µM	62.4 µM	> 100 µM	–	–	–	–	–	15.1 µM	–	–	–	22.8 µM	–
Cc1cc(Cc2cc(C)c(NC(=O)C(=O)C3CCC4=C(SC5C=CC=CC5N4)C3=O)c(C(C)C)c2)cc(C(C)C)c1NC(=O)C(=O)C1CCC2=C(SC3C=CC=CC3N2)C1=O (centres undefined)	> 100 µM	> 100 µM	> 100 µM	> 100 µM	> 100 µM	> 100 µM	> 100 µM	> 100 µM	> 100 µM	–	–	–	–	–	–	–	–	–	–
Cc1ccc(/C(O)=C/C(=O)C(=O)NC23CC4CC(CC(C4)C2)C3)cc1	> 10 µM	> 10 µM	–	–	> 10 µM	–	–	> 10 µM	> 10 µM	> 10 µM	–	–	–	–	–	–	–	–	–
O=c1c2cc3c(=O)n4c(cc(-c5ccccc5)c5cc(Cl)ccc54)nc3cc2nc2cc(-c3ccccc3)c3cc(Cl)ccc3n12	> 100 µM	> 100 µM	> 100 µM	> 100 µM	> 100 µM	> 100 µM	> 100 µM	–	> 100 µM	> 100 µM	–	–	–	–	–	–	–	–	–
COc1ccc(-c2cc(=O)c3cc(OC)ccc3[nH]2)cc1	> 100 µM	> 100 µM	–	–	–	> 100 µM	–	> 100 µM	> 100 µM	–	–	–	–	–	–	–	–	–	–
O=C(CN1CCOCC1)c1ccc2c(c1)oc(=O)n2CCN1CCOCC1	> 100 µM	> 100 µM	–	> 100 µM	> 100 µM	> 100 µM	> 100 µM	> 100 µM	–	> 100 µM	–	–	–	–	–	–	–	–	–
COc1ccc(/C(Cl)=C(\C=N/O)c2ccc(OC)c(OC)c2)cc1OC	> 100 µM	> 100 µM	> 100 µM	> 100 µM	–	> 100 µM	> 100 µM	> 100 µM	> 100 µM	–	–	–	–	–	–	–	–	–	–
NC(=O)Cc1nc2c(N)ncnc2n1C1OC(CO)C(O)C1O (centres undefined)	> 100 µM	–	> 100 µM	> 100 µM	> 100 µM	> 100 µM	> 100 µM	> 100 µM	> 100 µM	> 100 µM	–	–	–	–	–	–	–	–	–
CCCCCCCCCCCCCCCCCCNC(=S)/N=C\C1=C(O)c2ccccc2C1=O	22 µM	–	26.2 µM	–	29.5 µM	25.6 µM	40 µM	> 100 µM	14.1 µM	31.4 µM	–	–	–	–	–	–	–	–	–
Cc1ccc(S(=O)(=O)Oc2nc3ccccc3nc2OS(=O)(=O)c2ccc(C)cc2)cc1	> 100 µM	> 100 µM	> 100 µM	> 100 µM	> 100 µM	> 100 µM	> 100 µM	> 100 µM	–	> 100 µM	–	–	–	–	–	–	–	–	–
